Entries after “also recorded” stand apart in the source; their conditions may differ.
What was measured:
BHK cells [1] = assay: cAMP stimulated 36Cl- efflux from CFTR expressing cells; assay type: cell-based, Baby hamster; details: stimulation with IBMX, Forskolin, dibutyryl cyclic AMP
Method: Wild-type and ΔF508 CFTR expressing cells with each of the individual R[…]K substitutions, or all four lysine substitutions were grown to confluence in six well culture dishes. The cells were washed with a modified Ringer's buffer solution (136 mM NaNO3, 3 mM KNO3, 2 mM Ca(NO3)2, 2 mM Mg(NO3)2, 10 mM glucose and 20 mM HEPES, pH 7.4) and loaded for 60 min at room temperature with the same buffer supplemented with 1 μCi Na^36Cl (Amersham) in a volume of 0.5 ml per well. Wells were then washed three times at one min intervals. Samples (0.5 ml) were then collected at 1 minute intervals for scintillation counting with stimulation occurring at time 0 by adding buffer containing 1 mM IBMX, 10 μM Forskolin and 100 μM dibutyryl cyclic AMP. The 0.5 ml samples were collected into 24 well Top Count plates (Packard) and 1 ml of Microcint 40 scintillation cocktail (Packard) was added. ^36Cl^− radioactivity was determined in a Packard Top Count scintillation counter.

BHK cells [2] = assay: 35S-methionine pulse chase of CFTR maturation; assay type: cell-based, Baby hamster; details: for radioactivity of pulse-labeled immature band present in mature band (conversion of precursor to product): after 4 h of chase, electronic autoradiography; for maturation at the end of the pulse: end of the pulse (0 min); for conversion of precursor to mature endoH resistant form during chase: pulse chase
Method: Pulse chase studies were performed to determine the rate at which maturation occurred in the arginine-framed triplet substituted wild-type and ΔF508 CFTR polypeptides (FIG. 2). […] Cells were lysed at the end of the labeling period (0 chase time) or were further incubated in complete medium containing 5% fetal bovine serum and 1 mM methionine for the indicated times (chase). Cells were collected and lysed with the NP40 lysis buffer described above and centrifuged at 15,000×g for 15 min at 4° C. to obtain a soluble supernatant which was incubated overnight with the M3A7 primary antibody. Protein G-agarose (Gibco-BRL) was then used to remove the complexes formed which were washed four times with RIPA buffer, dissolved in electrophoresis sample buffer, and subsequently fractionated on SDS-7% acrylamide gels. Following fractionation, the gels were fixed in 30% methanol and 10% acetic acid, equilibrated in 1M sodium salicylate and dried for fluorography. Electronic autoradiography was performed with a Packard Instant Imager. […]

BHK cells [3] = assay: Indirect immunofluorescence localization of CFTR with M3A7; assay type: cell-based, Baby hamster; details: M3A7 staining, permeabilized cells
Method: Immunofluorescence microscopy in cells expressing ΔF508 CFTR was performed using the highly specific monoclonal antibody, M3A7 (Kartner et al., 1992, supra). Briefly, transformed cells were grown on coverslips, fixed in 70% cold methanol at −20° C. for 10 minutes, blocked using 1% BSA and 5% normal rabbit serum in PBS and were permeabilized by incubating in PBS+0.1% saponin for 1 h at 4° C. CFTR was detected by incubation with 10 μg/ml of M3A7 primary antibody for 60 min at room temperature. Rhodamine linked rabbit anti-mouse secondary antibody (DAKO) was diluted 1:50 in the same blocking solution for a further 1 h incubation. Photomicrographs were made using a Diagnostic Instruments Spot Cam digital camera on a Nikon Microphot-FXA microscope.

CFTR chloride channels [4] = assay: Single CFTR Cl- channel recording in planar lipid bilayers; assay type: biochemical, human; details: for Conductance: 300 mM Tris-HCl; for Conductance / Long mean closed time τc2 / Mean open time τ0 / Short mean closed time τc1: -75 mV, 2 mM MgATP; for open probability: 25° C.
Method: (§1) To further characterize the Cl^− channel activity, membrane vesicles were isolated from cells expressing wild-type, wild-type/4RK and ΔF508/4RK CFTR, fused with planar lipid bilayers and single channels were recorded (Aleksandrov, A. A., and Riordan, J. R. (1998) FEBS Lett. 431:97-101). Vesicles were prepared and phosphorylated with PKA as described previously (Aleksandrov and Riordan, 1998, supra). Briefly, planar lipid bilayers were painted onto a 0.2 mm hole drilled in a Teflon cup using a phospholipid solution in n-decane containing a 2:1 mixture of 1-palmitoyl-2-oleoyl-sn-glycero-3-phosphoethanolamine and 1-palmitoyl-2-oleoyl-sn-glycero-3-phosphoserine (20 mg/ml). The lipid bilayer separated 1.0 ml of solution in the Teflon cup (cis-side) from 4.0 ml of solution in an outer glass chamber (trans-side). Both chambers were magnetically stirred and thermostated. Heating and temperature control were established using a Temperature Control System TC2BIP (Cell MicroControls). Electrical contact with the solutions was provided by Ag/AgCl electrodes through agar bridges filled with 0.5 M KCl. The membrane potential difference was measured as the difference between trans and cis side potentials. The trans side was grounded and electrical measurements of the single channel current were performed under voltage clamp conditions using an Axopatch 200B (Axon Instruments) amplifier. The output signal was filtered with an 8-pole low pass Bessel Filter LPBF-48DG (NPI Electronic GmbH) with cut off frequency of 50 Hz and recorded on magnetic tape using a VR-10B (Instrutech Corp.) digital data recorded on a Sony SLV-440 VCR. For data analysis, the signal was digitized (Digidata 1200; Axon Instruments) with a sampling rate of 500 Hz and analyzed using pCLAMP 6.0 (Axon Instruments) software. Origin 4.0 (Microcal) software was used to fit all points histograms by multi-peak Gaussians. Membrane vesicles were prephosphorylated with PKA and added as a concentrated stock solution to the cis side to obtain a final protein concentration of 10-15 μg/ml. Measurements were made in symmetrical salts solutions containing, in mM: 300 Tris-HCl, 2 MgCl, 1 EGTA, pH=7.2, at a membrane potential of −75 mV. MgATP (2 mM) was added to the cis side only. Under these conditions any cationic channels present in the membrane vesicles are invisible and CFTR chloride channels appeared only after fusion of vesicles with an inside out orientation. Conductances for wild-type, wild-type/4RK and ΔF508/4RK were 10.7, 10.8, and 10.7 pS, respectively. Mean open times τ0 were 230, 1400, and 700 msec respectively. Short mean closed times τc1 were 10 msec in each case. Long mean closed times τc2 were 680, 2000, and 2800 msec, respectively. Conductance as a function of Cl^− concentration and temperature as well as anion selectivity of the CFTR ion channel were tested in control experiments showing good agreement with published data (Tabcharani, J. A et al. (1997) J. Gen. Physiol. 110:341-54).

CFTR chloride channels [5] = target: T1, CFTR chloride channels (Homo sapiens, UniProt P13569, DEL508-508/V470M); assay: as above; assay type: biochemical; details: vesicles from BHK cells
T1 construct: These five fragments were ligated together to generate full length CFTR cDNA in pNUT; expressed in transfected cells; host or cells: BHK (baby hamster kidney) cells, stably transfected with pNUT-CFTR constructs; membrane vesicles fused with planar lipid bilayers
Method: as §1

BHK cells [6] = assay: Western blot of BHK cell extracts with M3A7 antibody, with endoglycosidase H digestion; assay type: cell-based, Baby hamster; details: ΔF508 CFTR background; for mature bands of lower mobility on Western blot: steady state, BHK cell extracts
Method: Baby hamster kidney cells (BHK) cells grown at 37° C. in 5% CO2 were employed as hosts for CFTR expression as described previously (Loo et al. (1998) EMBO J. 17:6879-6887; and Seibert, F. S et al. (1995) J. Biol. Chem. 270:2158-2162). Subconfluent BHK cells were transformed with the above wild-type or ΔF508 CFTR constructs using calcium phosphate precipitation (Chen, C., and Okayama, H. (1987) Mol. Cell. Biol. 7: 2745-2752). After growth in selective media containing 500 μM methotrexate, individual colonies were picked and amplified in the same selective media.
BHK cells were grown, collected and then lysed with 1% SDS; the DNA was sheared by cycling through a 22 gauge needle. Protein lysate (20 μg) from the sample were then subjected to SDS-PAGE on 7% polyacrylamide gels. Protein was electroblotted from the gel to nitrocellulose membrane and the membrane was probed with a mouse anti-CFTR monoclonal antibody, M3A7 (Kartner, N. et al. (1992) Nat. Genetics 1:321-7). Chemiluminescent detection was performed according to the manufacturer's recommendations (Pierce).
For endoglycosidase H treatment, cell lysates were diluted with 10 volumes of buffer (50 mM sodium acetate, pH 5.3, 0.5% Nonidet P-40, 1% β-mercaptoethanol plus a protease inhibitor mixture: 2 μg/ml aprotinin, 120 μg/ml benzamidine, […], 1 μg/ml leupepetin and 50 μg/ml pefabloc). This yielded a final SDS concentration of 0.1%. Samples were then incubated for 4 hr at 37° C. with 10 mU of endoglycosidase H (Boehringer Mannheim). The reactions were stopped by addition of 4 volumes of cold ethanol (−20° C.) to precipitate the proteins. Precipitated proteins were then resuspended in gel loading dye and subjected to SDS-PAGE and immunoblotting as above.

BHK cells [7] = assay: Cell surface biotinylation of CFTR on intact cell monolayers; assay type: cell-based, Baby hamster
Method: For cell surface biotinylation studies, cells grown to about 90% confluency were treated with 2 mM sodium butyrate for 18 h to augment CFTR expression. Dishes of cells were then placed on ice in a cold room for 30 minutes and all subsequent steps were performed. Cells washed with PBS containing 0.1 mM CaCl2 and 1.0 mM MgCl2, were labeled using 3 ml of 1 mg/ml EZ-Link Sulfo-NHS-SS-biotin (Pierce) in PBS, pH 8.0 for 30 minutes. Following washes in PBS+1% BSA and PBS, cells were incubated for 30 minutes in NP40 lysis buffer (0.09% NP40, 150 mM NaCl, 10 mM NH4MoO4, 50 mM Tris-HCl, pH 7.4), scraped and transferred to microfuge tubes. Insoluble materials were removed by centrifugation. Biotinylated proteins were then precipitated by incubation overnight with 50 μl of packed immobilized streptavidin beads (Pierce). Beads were washed with RIPA buffer (0.1% SDS, 1% DOC, 1% Triton X-100, 150 mM NaCl, 50 mM Tris-Hcl, pH 7.4) and proteins eluted with gel sample buffer for electrophoresis and Western blotting with M3A7 as detailed above.

T1 sequence (P13569 with tags, fused parts or gaps V470M/DEL508-508): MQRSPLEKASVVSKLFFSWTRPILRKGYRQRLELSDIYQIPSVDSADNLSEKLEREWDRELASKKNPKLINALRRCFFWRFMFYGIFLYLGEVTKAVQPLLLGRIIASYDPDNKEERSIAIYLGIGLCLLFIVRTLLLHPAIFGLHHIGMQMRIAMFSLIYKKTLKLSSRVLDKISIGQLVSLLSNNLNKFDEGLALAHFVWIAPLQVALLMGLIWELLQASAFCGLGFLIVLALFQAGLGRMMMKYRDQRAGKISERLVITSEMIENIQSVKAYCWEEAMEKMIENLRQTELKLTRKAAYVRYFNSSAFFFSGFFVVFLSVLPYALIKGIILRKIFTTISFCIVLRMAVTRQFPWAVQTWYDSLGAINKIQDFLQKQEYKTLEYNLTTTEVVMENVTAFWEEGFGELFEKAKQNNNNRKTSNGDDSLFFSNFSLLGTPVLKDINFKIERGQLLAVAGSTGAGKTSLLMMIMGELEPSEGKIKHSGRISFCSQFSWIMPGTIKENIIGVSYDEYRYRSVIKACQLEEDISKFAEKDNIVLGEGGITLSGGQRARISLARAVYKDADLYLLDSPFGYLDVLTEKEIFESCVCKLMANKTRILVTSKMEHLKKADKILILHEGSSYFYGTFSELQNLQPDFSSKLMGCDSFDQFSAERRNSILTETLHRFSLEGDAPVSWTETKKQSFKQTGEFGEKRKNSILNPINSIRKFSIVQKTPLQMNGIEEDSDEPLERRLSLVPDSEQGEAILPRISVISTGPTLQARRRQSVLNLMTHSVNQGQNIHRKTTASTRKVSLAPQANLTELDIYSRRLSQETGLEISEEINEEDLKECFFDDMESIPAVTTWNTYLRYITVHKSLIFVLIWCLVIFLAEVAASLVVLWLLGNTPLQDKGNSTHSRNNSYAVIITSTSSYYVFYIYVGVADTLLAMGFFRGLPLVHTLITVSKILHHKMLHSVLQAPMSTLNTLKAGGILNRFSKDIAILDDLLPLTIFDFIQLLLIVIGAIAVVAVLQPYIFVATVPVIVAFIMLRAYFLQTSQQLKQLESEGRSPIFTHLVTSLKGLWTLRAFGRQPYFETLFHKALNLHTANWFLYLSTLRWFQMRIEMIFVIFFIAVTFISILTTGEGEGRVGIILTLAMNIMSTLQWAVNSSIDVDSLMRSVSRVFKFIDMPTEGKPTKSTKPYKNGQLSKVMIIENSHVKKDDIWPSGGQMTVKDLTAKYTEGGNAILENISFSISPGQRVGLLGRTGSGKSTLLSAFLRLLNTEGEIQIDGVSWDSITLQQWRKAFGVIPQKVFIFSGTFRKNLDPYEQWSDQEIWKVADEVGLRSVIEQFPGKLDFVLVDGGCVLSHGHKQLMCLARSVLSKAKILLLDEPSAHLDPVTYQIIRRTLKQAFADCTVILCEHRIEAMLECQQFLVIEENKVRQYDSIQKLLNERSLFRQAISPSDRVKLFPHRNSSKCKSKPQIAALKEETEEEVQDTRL

Row | Substance | cAMP stimulated 36Cl- efflux rate (BHK cells [1]) | conversion of precursor to mature endoH resistant form during chase (BHK cells [2]) | CFTR localization by immunofluorescence (BHK cells [3]) | Conductance (CFTR chloride channels [4]) [pS] | Long mean closed time τc2 (CFTR chloride channels [4]) [ms] | Mean open time τ0 (CFTR chloride channels [4]) [ms] | Short mean closed time τc1 (CFTR chloride channels [4]) [ms] | also measured
1 | R516K: ΔF508 CFTR in which arginine 516 has been substituted with lysine | No detectable increase in efflux rate |  |  |  |  |  |  | 
2 | R555K: ΔF508 CFTR in which arginine 555 has been substituted with lysine | No detectable increase in efflux rate |  |  |  |  |  |  | 
3 | R766K: ΔF508 CFTR in which arginine 766 has been substituted with lysine | No detectable increase in efflux rate |  |  |  |  |  |  | 
4 | wild-type CFTR: full-length human CFTR expressed from pNUT vector in BHK cells [reference compound] |  | begins within an hour | strong uniform staining of mature CFTR over the entire cell surface | 10.7 | 680 | 230 | 10 | radioactivity of pulse-labeled immature band present in mature band (conversion of precursor to product) (BHK cells [2]): ~30%; maturation at the end of the pulse (BHK cells [2]): no maturation; open probability (CFTR chloride channels [4]): ~0.25
5 | wild-type/4RK: wild-type CFTR in which four arginines (R29K, R516K, R555K, R766K) have been substituted with lysine |  | more rapid maturation |  | 10.8 | 2000 | 1400 | 10 | maturation at the end of the pulse (BHK cells [2]): already evident; open probability (CFTR chloride channels [4]): ~0.61
6 | ΔF508 CFTR: export-incompetent cystic fibrosis causing CFTR mutant lacking phenylalanine 508 | No detectable increase in efflux rate | no conversion; also recorded: fails to mature even after two hours | Perinuclear staining only |  |  |  |  | detection of CFTR-like single channels (CFTR chloride channels [5]): never been able to detect CFTR-like single channels
7 | ΔF508/4RK: ΔF508 CFTR having all four arginines (29, 516, 555, 766) substituted with lysine | more than half as rapid as those from cells expressing wild-type CFTR | readily apparent | extension of the staining more peripherally | 10.7 | 2800 | 700 | 10 | endoglycosidase H sensitivity of the large bands (BHK cells [6]): Endoglycosidase-H insensitivity; mature bands of lower mobility on Western blot (BHK cells [6]): bands of lower mobility are produced; accessibility of mature band to surface biotinylation (BHK cells [7]): accessible to the impermeant amino reactive biotinylation reagent; radioactivity of pulse-labeled immature band present in mature band (conversion of precursor to product) (BHK cells [2]): approximately 10%
8 | ΔF508/R29K: ΔF508 CFTR in which arginine 29 has been substituted with lysine | low rates of ^36Cl^− efflux occurred at delayed times after stimulation |  |  |  |  |  |  | endoglycosidase H sensitivity of the large bands (BHK cells [6]): Endoglycosidase-H insensitivity; mature bands of lower mobility on Western blot (BHK cells [6]): bands of lower mobility are produced

Source: patent publication US7695923B2, “CFTR polypeptides methods to overcome biosynthetic misprocessing” (Mayo Foundation for Medical Education and Research, priority 1999, dated 2010)
